One data set has as its system P. aeruginosa ATCC 27853. Put shortly:
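Two-dimensional checkerboard broth microdilution in MHB II, with twofold dilutions of peptidomimetic and antibiotic on crossed axes and 18–20 h incubation per CLSI. FICI = MICA(A+B)/MICA(alone) + MICB(A+B)/MICB(alone); ≤0.5 is interpreted as synergy.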

Data set [1] concerns P. aeruginosa clinical isolates and reference strains. The experiment in a line: MIC of fixed-ratio peptidomimetic 1-antibiotic combinations in clinical isolates and reference strains. The class given is cell-based, Pseudomonas aeruginosa. As to conditions: with rifampicin or azithromycin. The source says:
Bacterial strains used in this study comprise MDR clinical isolates of E. coli ST131 (Cerquetti et al., [2010]) and K. pneumoniae ST258 (Jana et al., [2017]), and American type culture collection (ATCC) strains: ATCC 25922 (E. coli), ATCC 13883 (K. pneumoniae), and ATCC 27853 (P. aeruginosa). Additional clinical isolates of E. coli, K. pneumoniae, and P. aeruginosa resistant to β-lactams (including carbapenems and cephalosporins) were provided by Laurent Poirel, Université de Fribourg, Switzerland. The following growth media was routinely used for bacterial culturing: Luria-Burtani (LB), cation-adjusted Mueller-Hinton agar (MHA) and broth (MHB II). All assays were performed in cation-adjusted MHA or MHB II. Antibiotics were purchased from Sigma-Aldrich and the peptidomimetic collection (Table S1) was curated and provided by Henrik Franzyk. […]
Minimal inhibitory concentrations (MICs) of peptidomimetics, antibiotics and their combinations were determined by broth microdilution according to the Clinical Laboratory Standards Institute performance standards (Clinical and Laboratory Standards Institute, [2013]). […] Potentiation of additional antibiotics by peptidomimetics was determined by using commercial 96-well plates containing varied concentrations of standard antibiotics (COMPAN1F; Trek Diagnostic Systems Inc.). The peptidomimetics were added immediately prior to inoculation with pathogen, and then MICs were determined as above. The MICs of peptidomimetic/antibiotic combinations were determined according to the method above, and the concentration ratios were selected based upon checkerboard results with 2:1 and 1:4 ratio of peptidomimetic with rifampicin or azithromycin, respectively. Minimal bactericidal concentrations (MBCs) were determined by using growth-curve assay plates. […] Growth was recorded at 10 min intervals as optical density (OD) at 600 nm during 24 h. […]

Data set [2] can be described thus: MTS/PMS cell viability assay. The class given is cell-based. The following applies: human, HepG2 hepatocytes, 1 h exposure, read-out: Cytotoxicity HepG2 EC50 ± SD. Put shortly:
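NIH 3T3 and HepG2 cells at 80–90% confluence exposed 1 h to compound in serum-free medium, then MTS/PMS added for 1 h at 37 °C; absorbance read at 492 nm. Viability normalized to medium (0% death) and 0.2% SDS (100% death); EC50 from Hill fit constrained 0–100%, technical triplicates.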

The test system of another data set is E. coli ST131. As to conditions: ST131, 24 h. How it is done:
Minimal inhibitory concentrations (MICs) of peptidomimetics, antibiotics and their combinations were determined by broth microdilution according to the Clinical Laboratory Standards Institute performance standards (Clinical and Laboratory Standards Institute, [2013]). […] Since rifampicin and azithromycin mainly are used to treat infections with Gram-positive pathogens only CLSI clinical breakpoints were available for such bacteria. […] Potentiation of additional antibiotics by peptidomimetics was determined by using commercial 96-well plates containing varied concentrations of standard antibiotics (COMPAN1F; Trek Diagnostic Systems Inc.). The peptidomimetics were added immediately prior to inoculation with pathogen, and then MICs were determined as above. The MICs of peptidomimetic/antibiotic combinations were determined according to the method above, and the concentration ratios were selected based upon checkerboard results with 2:1 and 1:4 ratio of peptidomimetic with rifampicin or azithromycin, respectively. Minimal bactericidal concentrations (MBCs) were determined by using growth-curve assay plates. MIC plates were prepared as above, and then the plates were incubated at 37°C with continuous shaking. Growth was recorded at 10 min intervals as optical density (OD) at 600 nm during 24 h. At 24 h, for wells without growth, a sample was diluted 10-fold in sterile saline (0.9% sodium chloride) and plated onto MHA, following CLSI guidelines (Clinical and Laboratory Standards Institute, [1999]).

Read-outs that look alike come from different tables or passages of the source.

From publication PMC6615261, “Repurposing Azithromycin and Rifampicin Against Gram-Negative Pathogens by Combination With Peptidomimetics” (Frontiers in Cellular and Infection Microbiology, 2019) come the findings set out here.

The term EC50 denotes the concentration at which the effect is half-maximal. As for `NCCCC[C@H](NC(=O)CCN(Cc1ccccc1)C(=O)[C@H](CCCCN)NC(=O)CCN(Cc1ccccc1)C(=O)[C@H](CCCCN)NC(=O)CCN(Cc1ccccc1)C(=O)[C@H](CCCCN)NC(=O)CCN(Cc1ccccc1)C(=O)[C@H](CCCCN)NC(=O)CCN(Cc1ccccc1)C(=O)[C@H](CCCCN)NC(=O)CCN(Cc1ccccc1)C(=O)[C@H](CCCCN)NC(=O)CCN(Cc1ccccc1)C(=O)[C@@H](N)CCCCN)C(=O)N(CCC(N)=O)Cc1ccccc1` [Peptidomimetic 1, H-(Lys-βNPhe)8-NH2], the “Antibiotic MIC in combination (RIF)” value in the data set with P. aeruginosa ATCC 27853 (P. aeruginosa ATCC 27853, MIC of rifampicin combined with the labelled peptidomimetic) worked out at 1 µg/mL. Moreover, the “Peptidomimetic MIC alone” value in the data set on P. aeruginosa ATCC 27853 (P. aeruginosa ATCC 27853, checkerboard) is 1 µM. Also, the “Peptidomimetic MIC in combination” value in the data set with P. aeruginosa ATCC 27853 (P. aeruginosa ATCC 27853, combined with AZM) was found to be 0.25 µM. In addition, the “Peptidomimetic MIC in combination” value in the data set on P. aeruginosa ATCC 27853 (P. aeruginosa ATCC 27853, combined with RIF) came to 0.25 µM. In addition, the “Reduction of the MIC of azithromycin” value in the data set on P. aeruginosa ATCC 27853 (P. aeruginosa, sub-MIC concentrations of peptidomimetic) was 32- to 512 fold. Besides, the “Peptidomimetic concentration typically required, P. aeruginosa isolates” value in data set [1] lay in the range of 1 to 8 µM. The EC50 at 1 h in data set [2] was determined as 124 ± 0.81 µM. Besides, in the data set with E. coli ST131, the “MBC (peptidomimetic alone)” value was 1 µM and the “MIC (peptidomimetic alone)” value was found to be 1 µM.
